Results as given in PMC8037530, “Synthesis and Hybrid SAR Property Modeling of Novel Cholinesterase Inhibitors” (International Journal of Molecular Sciences, 2021).
Where two headings read alike, the source gives them in different places.

Legend:
[1] = biological target: T1, AChE from electric eel (Electrophorus electricus) (Electrophorus electricus, UniProt O42275); assay: In vitro AChE inhibition, modified Ellman's method; type: biochemical
T1 construct: purchased Sigma, St. Louis, MO, USA
Method: (§1) The ability of all the prepared compounds to inhibit AChE from electric eel (Electrophorus electricus) and BChE from equine serum (both purchased from Sigma, St. Louis, MO, USA) was determined in vitro using a modified Ellman’s method, as described in detail elsewhere. This is a simple, rapid, and direct method to determine the SH and -S-S- group content in proteins. The enzyme activity is measured indirectly by quantifying the concentration of the 5-thio-2-nitrobenzoic acid ion formed in the reaction between the thiol reagent 5,5’-dithiobis-2nitrobenzoic acid (DTNB) and thiocholine, which is a product of acetylthiocholine hydrolysis catalyzed by cholinesterases. The effectiveness of the tested inhibitors is expressed as the IC50 values.
(§2) The enzyme activity in the final reaction mixture (2 mL) was 0.2 U/mL, the concentration of the substrate (acetylthiocholine or butyrythiocholine) was 40 µM, and the concentration of DTNB was 0.1 mM for all reactions. All reactions were carried out at 25 °C in the presence of phosphate-buffered saline (0.1 M, pH 7.4) in a glass cuvette with a 1 cm optical path. All the studied inhibitors were dissolved in DMSO (concentration 0.01 M) and then diluted in demineralized water as necessary. […] All measurements were carried out in triplicate, and the average values of the reaction rate (v0—reaction in the absence of the inhibitor, vi—reaction in the presence of the inhibitor) were used for construction of the dependence v0/vi vs. concentration of the inhibitor.

[2] = biological target: T2, BChE from equine serum (Equus caballus, UniProt P81908); assay: In vitro BChE inhibition, modified Ellman's method; type: biochemical; settings: for SI (index selectivity) = IC50 (AChE)/IC50 (BChE): ratio IC50 AChE/IC50 BChE
T2 construct: BChE from equine serum; purchased Sigma, St. Louis, MO, USA; host or cells: equine serum
Method: as §1, §2

[3] = Determination of lipophilicity by RP-HPLC (capacity factor k); type: physicochemical; settings: C18, isocratic MeOH 72%/H2O 28%, 40 °C
Method: The lipophilicity of all the target compounds was investigated by means of RP-HPLC determination of capacity factors k with a subsequent calculation of log k. The retention times of individual compounds were determined under isocratic conditions with methanol as an organic modifier in the mobile phase using end-capped non-polar C18 stationary RP columns.
The HPLC separation system Agilent 1200 series equipped with a DAD SL (Agilent Technologies) was used. A chromatographic column Symmetry® C18 5 μm, 4.6 × 250 mm, Part No. W21751W016 (Waters Corp., Milford, MA, USA) was applied. The HPLC separation process was monitored by the ChemStation for LC 3D chromatography software (Agilent Technologies). Isocratic elution by a mixture of MeOH p.a. (72%) and H2O-HPLC Mili-Q grade (28%) as a mobile phase was used for the determination of the capacity factor k. The total flow of the column was 1.0 mL/min, injection 20 μL, column temperature 40 °C, and sample temperature 10 °C. The detection wavelength of 210 nm was chosen. A KI methanolic solution was used for the determination of the dead times (tD). Retention times (tR) were measured in minutes. The capacity factors k were calculated according to the formula k = (tR − tD)/tD, where tR is the retention time of the solute and tD is the dead time obtained using an unretained analyte. Each experiment was repeated three times.

T2 sequence (P81908 whole entry): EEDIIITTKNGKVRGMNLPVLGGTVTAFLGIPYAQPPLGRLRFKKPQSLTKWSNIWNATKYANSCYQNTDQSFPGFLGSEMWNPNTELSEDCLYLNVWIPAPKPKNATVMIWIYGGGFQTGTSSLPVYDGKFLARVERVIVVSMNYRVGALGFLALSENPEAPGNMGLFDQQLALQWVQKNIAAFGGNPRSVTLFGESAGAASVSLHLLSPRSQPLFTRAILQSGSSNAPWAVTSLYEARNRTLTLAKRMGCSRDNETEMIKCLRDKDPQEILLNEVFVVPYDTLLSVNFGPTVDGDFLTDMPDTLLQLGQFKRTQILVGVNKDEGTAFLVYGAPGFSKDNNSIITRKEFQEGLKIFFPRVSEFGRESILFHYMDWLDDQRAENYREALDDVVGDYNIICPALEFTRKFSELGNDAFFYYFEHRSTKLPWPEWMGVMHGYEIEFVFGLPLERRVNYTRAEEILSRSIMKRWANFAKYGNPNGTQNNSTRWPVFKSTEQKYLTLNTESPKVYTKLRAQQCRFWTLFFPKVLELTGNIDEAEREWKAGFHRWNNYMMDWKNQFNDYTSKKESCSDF
T1 sequence (O42275 24-633): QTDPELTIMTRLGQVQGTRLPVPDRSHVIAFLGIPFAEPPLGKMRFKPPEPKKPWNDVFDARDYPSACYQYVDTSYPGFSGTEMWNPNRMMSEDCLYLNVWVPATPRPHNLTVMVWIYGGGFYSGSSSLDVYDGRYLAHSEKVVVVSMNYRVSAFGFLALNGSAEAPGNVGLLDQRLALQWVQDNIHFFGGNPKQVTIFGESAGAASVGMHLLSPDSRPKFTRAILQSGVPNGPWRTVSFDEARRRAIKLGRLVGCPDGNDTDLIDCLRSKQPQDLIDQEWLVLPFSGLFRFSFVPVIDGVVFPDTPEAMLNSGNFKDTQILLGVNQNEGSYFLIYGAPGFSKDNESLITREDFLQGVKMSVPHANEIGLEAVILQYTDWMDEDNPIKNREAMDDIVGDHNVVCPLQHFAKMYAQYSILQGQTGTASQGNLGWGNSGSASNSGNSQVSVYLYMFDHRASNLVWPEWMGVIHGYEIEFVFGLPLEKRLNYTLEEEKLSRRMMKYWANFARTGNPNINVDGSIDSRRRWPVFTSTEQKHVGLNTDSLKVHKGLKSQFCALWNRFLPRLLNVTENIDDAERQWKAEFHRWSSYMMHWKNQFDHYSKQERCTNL

SMILES: Cc1cccc(NC(=O)c2ccc(NC(=O)OCc3ccccc3)cc2O)c1 [Compound 5, Benzyl{3-hydroxy-4-[(3-methylphenyl)carbamoyl]phenyl}carbamate]
- IC50 [1]: 70.2 ± 1.7 µM
- IC50 [2]: 167 ± 10.2 µM
- SI (index selectivity) = IC50 (AChE)/IC50 (BChE) [2]: 0.42
- log k [3]: 0.2725

SMILES: O=C(Nc1ccc(C(=O)Nc2ccc(Cl)c(Cl)c2)c(O)c1)OCc1ccccc1 [Compound 24, Benzyl{4-[(3,4-dichlorophenyl)carbamoyl]-3-hydroxyphenyl}carbamate]
- IC50 [1]: 58 ± 5.83 µM
- IC50 [2]: 185 ± 6.13 µM
- SI (index selectivity) = IC50 (AChE)/IC50 (BChE) [2]: 0.31
- log k [3]: 0.6664

SMILES: O=C(Nc1ccc(C(=O)Nc2cccc(F)c2F)c(O)c1)OCc1ccccc1 [Compound 16, Benzyl{4-[(2,3-difluorophenyl)carbamoyl]-3-hydroxyphenyl}carbamate]
- IC50 [1]: 62.4 ± 1.42 µM
- IC50 [2]: 200 ± 7 µM
- SI (index selectivity) = IC50 (AChE)/IC50 (BChE) [2]: 0.31
- log k [3]: 0.4705

SMILES: O=C(Nc1ccc(C(=O)Nc2cc(F)cc(F)c2)c(O)c1)OCc1ccccc1 [Compound 20, Benzyl{4-[(3,5-difluorophenyl)carbamoyl]-3-hydroxyphenyl}carbamate]
- IC50 [1]: 67.4 ± 5.24 µM
- IC50 [2]: 208 ± 5.3 µM
- SI (index selectivity) = IC50 (AChE)/IC50 (BChE) [2]: 0.32
- log k [3]: 0.4072

SMILES: O=C(Nc1ccc(C(=O)Nc2ccccc2OC(F)(F)F)c(O)c1)OCc1ccccc1
- IC50 ([1]; mean ± SD, n = 3, electric eel AChE, 25 °C, pH 7.4, read-out: IC50 AChE): 36.1 µM

SMILES: O=C(Nc1ccc(C(=O)Nc2ccccc2F)c(O)c1)OCc1ccccc1 [Compound 6, Benzyl{4-[(2-fluorophenyl)carbamoyl]-3-hydroxyphenyl}carbamate]
- IC50 [1]: 50.07 ± 0.06 µM
- IC50 [2]: 70.8 ± 5.61 µM
- SI (index selectivity) = IC50 (AChE)/IC50 (BChE) [2]: 0.71
- log k [3]: 0.3577

SMILES: O=C(Nc1ccc(C(=O)Nc2c(Br)cc(Br)cc2Br)c(O)c1)OCc1ccccc1 [Compound 32, Benzyl{3-hydroxy-4-[(2,4,6-tribromophenyl)carbamoyl]phenyl}carbamate]
- IC50 [1]: 65.9 ± 2.81 µM
- IC50 [2]: 56 ± 0.58 µM
- SI (index selectivity) = IC50 (AChE)/IC50 (BChE) [2]: 1.18
- log k [3]: 0.4427

SMILES: O=C(Nc1ccc(C(=O)Nc2ccccc2OC(F)(F)F)c(O)c1)OCc1ccccc1 [Compound 15, Benzyl(3-hydroxy-4-{[2-(trifluoromethoxy)phenyl]carbamoyl}phenyl)carbamate]
- IC50 [1]: 36 ± 1.48 µM
- IC50 [2]: 44.3 ± 0.87 µM
- SI (index selectivity) = IC50 (AChE)/IC50 (BChE) [2]: 0.81
- log k [3]: 0.6227

SMILES: O=C(Nc1ccc(C(=O)O)c(O)c1)OCc1ccccc1 [CbzPAS, 4-{[(Benzyloxy)carbonyl]amino}-2-hydroxybenzoic acid, reference compound]
- IC50 [1]: 58.1 ± 1.04 µM
- IC50 [2]: 137 ± 21.8 µM
- SI (index selectivity) = IC50 (AChE)/IC50 (BChE) [2]: 0.42

SMILES: O=C(Nc1ccc(C(=O)Nc2ccccc2)c(O)c1)OCc1ccccc1 [Compound 1, Benzyl[3-hydroxy-4-(phenylcarbamoyl)phenyl]carbamate]
- IC50 [1]: 65.2 ± 2.24 µM
- IC50 [2]: 175 ± 5.85 µM
- SI (index selectivity) = IC50 (AChE)/IC50 (BChE) [2]: 0.37
- log k [3]: 0.1160

SMILES: O=C(Nc1ccc(C(=O)Nc2cccc(Cl)c2)c(O)c1)OCc1ccccc1 [Compound 10, Benzyl{4-[(3-chlorophenyl)carbamoyl]-3-hydroxyphenyl}carbamate]
- IC50 [1]: 61.6 ± 1.74 µM
- IC50 [2]: 204 ± 7.49 µM
- SI (index selectivity) = IC50 (AChE)/IC50 (BChE) [2]: 0.30
- log k [3]: 0.6411

SMILES: COc1cccc(NC(=O)c2ccc(NC(=O)OCc3ccccc3)cc2O)c1 [Compound 3, Benzyl{3-hydroxy-4-[(3-methoxyphenyl)carbamoyl]phenyl}carbamate]
- IC50 [1]: 69.3 ± 2 µM
- IC50 [2]: 362 ± 8.12 µM
- SI (index selectivity) = IC50 (AChE)/IC50 (BChE) [2]: 0.19
- log k [3]: 0.1280

SMILES: O=C(Nc1ccc(C(=O)Nc2ccc(F)cc2)c(O)c1)OCc1ccccc1 [Compound 8, Benzyl{4-[(4-fluorophenyl)carbamoyl]-3-hydroxyphenyl}carbamate]
- IC50 [1]: 47.4 ± 0.61 µM
- IC50 [2]: 105.8 ± 0.43 µM
- SI (index selectivity) = IC50 (AChE)/IC50 (BChE) [2]: 0.45
- log k [3]: 0.3924

SMILES: O=C(Nc1ccc(C(=O)Nc2c(Cl)cc(Cl)cc2Cl)c(O)c1)OCc1ccccc1 [Compound 31, Benzyl{3-hydroxy-4-[(2,4,6-trichlorophenyl)carbamoyl]phenyl}carbamate]
- IC50 [1]: 93.1 ± 1.8 µM
- IC50 [2]: 57.1 ± 1.72 µM
- SI (index selectivity) = IC50 (AChE)/IC50 (BChE) [2]: 1.63
- log k [3]: 0.3679

SMILES: O=C(Nc1ccc(C(=O)Nc2ccc(Cl)cc2)c(O)c1)OCc1ccccc1 [Compound 11, Benzyl{4-[(4-chlorophenyl)carbamoyl]-3-hydroxyphenyl}carbamate]
- IC50 [1]: 78.2 ± 1.58 µM
- IC50 [2]: 139 ± 6.86 µM
- SI (index selectivity) = IC50 (AChE)/IC50 (BChE) [2]: 0.56
- log k [3]: 0.6399

SMILES: O=C(Nc1ccc(C(=O)Nc2ccccc2C(F)(F)F)c(O)c1)OCc1ccccc1 [Compound 12, Benzyl(3-hydroxy-4-{[2-(trifluoromethyl)phenyl]carbamoyl}phenyl)carbamate]
- IC50 [1]: 56.4 ± 1.26 µM
- IC50 [2]: 33.6 ± 0.71 µM
- SI (index selectivity) = IC50 (AChE)/IC50 (BChE) [2]: 1.68
- log k [3]: 0.4318

SMILES: O=C(Nc1ccc(C(=O)Nc2cccc(C(F)(F)F)c2)c(O)c1)OCc1ccccc1 [Compound 13, Benzyl(3-hydroxy-4-{[3-(trifluoromethyl)phenyl]carbamoyl}phenyl)carbamate]
- IC50 [1]: 70.67 ± 0.57 µM
- IC50 [2]: 309 ± 8.06 µM
- SI (index selectivity) = IC50 (AChE)/IC50 (BChE) [2]: 0.23
- log k [3]: 0.4477

SMILES: COc1ccc(NC(=O)c2ccc(NC(=O)OCc3ccccc3)cc2O)cc1 [Compound 4, Benzyl{3-hydroxy-4-[(4-methoxyphenyl)carbamoyl]phenyl}carbamate]
- IC50 [1]: 57.49 ± 0.08 µM
- IC50 [2]: 154 ± 6.09 µM
- SI (index selectivity) = IC50 (AChE)/IC50 (BChE) [2]: 0.37
- log k [3]: 0.1176

SMILES: O=C(Nc1ccc(C(=O)Nc2cccc(F)c2)c(O)c1)OCc1ccccc1 [Compound 7, Benzyl{4-[(3-fluorophenyl)carbamoyl]-3-hydroxyphenyl}carbamate]
- IC50 [1]: 66.6 ± 0.14 µM
- IC50 [2]: 197.6 ± 1.36 µM
- SI (index selectivity) = IC50 (AChE)/IC50 (BChE) [2]: 0.34
- log k [3]: 0.2303

SMILES: O=C(Nc1ccc(C(=O)Nc2cc(F)ccc2F)c(O)c1)OCc1ccccc1 [Compound 18, Benzyl{4-[(2,5-difluorophenyl)carbamoyl]-3-hydroxyphenyl}carbamate]
- IC50 [1]: 58.31 ± 0.2 µM
- IC50 [2]: 157 ± 3.11 µM
- SI (index selectivity) = IC50 (AChE)/IC50 (BChE) [2]: 0.37
- log k [3]: 0.4012

SMILES: O=C(Nc1ccc(C(=O)Nc2cc(Cl)cc(Cl)c2)c(O)c1)OCc1ccccc1 [Compound 25, Benzyl{4-[(3,5-dichlorophenyl)carbamoyl]-3-hydroxyphenyl}carbamate]
- IC50 [1]: 50.62 ± 0.38 µM
- IC50 [2]: 143 ± 3.69 µM
- SI (index selectivity) = IC50 (AChE)/IC50 (BChE) [2]: 0.35
- log k [3]: 0.9084

SMILES: O=C(Nc1ccc(C(=O)Nc2c(F)cccc2F)c(O)c1)OCc1ccccc1 [Compound 19, Benzyl{4-[(2,6-difluorophenyl)carbamoyl]-3-hydroxyphenyl}carbamate]
- IC50 [1]: 64.3 ± 4.74 µM
- IC50 [2]: 42.9 ± 2.13 µM
- SI (index selectivity) = IC50 (AChE)/IC50 (BChE) [2]: 1.50
- log k [3]: -0.1205

SMILES: O=C(Nc1ccc(C(=O)Nc2cc(Cl)ccc2Cl)c(O)c1)OCc1ccccc1 [Compound 22, Benzyl{4-[(2,5-dichlorophenyl)carbamoyl]-3-hydroxyphenyl}carbamate]
- IC50 [1]: 99.14 ± 0.2 µM
- IC50 [2]: 141 ± 7.12 µM
- SI (index selectivity) = IC50 (AChE)/IC50 (BChE) [2]: 0.70
- log k [3]: 0.6138

SMILES: O=C(Nc1ccc(C(=O)Nc2cc(F)c(F)c(F)c2)c(O)c1)OCc1ccccc1 [Compound 29, Benzyl{3-hydroxy-4-[(3,4,5-trifluorophenyl)carbamoyl]phenyl}carbamate]
- IC50 [1]: 62.3 ± 0.75 µM
- IC50 [2]: 183.7 ± 0.75 µM
- SI (index selectivity) = IC50 (AChE)/IC50 (BChE) [2]: 0.34
- log k [3]: 0.5169

SMILES: O=C(Nc1ccc(C(=O)Nc2ccccc2Cl)c(O)c1)OCc1ccccc1 [Compound 9, Benzyl{4-[(2-chlorophenyl)carbamoyl]-3-hydroxyphenyl}carbamate]
- IC50 [1]: 41.86 ± 0.15 µM
- IC50 [2]: 140.1 ± 0.35 µM
- SI (index selectivity) = IC50 (AChE)/IC50 (BChE) [2]: 0.30
- log k [3]: 0.5188

SMILES: O=C(Nc1ccc(C(=O)Nc2ccc(F)cc2F)c(O)c1)OCc1ccccc1 [Compound 17, Benzyl{4-[(2,4-difluorophenyl)carbamoyl]-3-hydroxyphenyl}carbamate]
- IC50 [1]: 79.2 ± 1.27 µM
- IC50 [2]: 180 ± 7.04 µM
- SI (index selectivity) = IC50 (AChE)/IC50 (BChE) [2]: 0.44
- log k [3]: 0.1912
